≈ marks a conversion by molar mass, not a printed value. Calls of active or inactive are those of the source. The rule behind the calls is not given here.
Assays:
[1] = test system: Mycolicibacterium smegmatis; test: Antibacterial activity against Mycobacterium smegmatis DSM ATCC 700084 assessed as growth inhibition by serial dilution assay; format: functional, organism-based
Staphylococcus aureus = test: Antibacterial activity against Staphylococcus aureus DSM 346 assessed as growth inhibition by serial dilution assay; format: functional
Escherichia coli [2] = test: Antibacterial activity against Escherichia coli ATCC 8739 assessed as inhibition of bacterial growth measured after 18 hrs by Alamar blue assay; format: functional
Bacillus subtilis = test: Antibacterial activity against Bacillus subtilis DSM 10 assessed as growth inhibition by serial dilution assay; format: functional
KB 3-1 = test: Cytotoxicity in human KB 3-1 cells assessed as reduction in cell viability measured after 5 days by MTT assay; format: functional, cell-based; settings: KB 3-1, 120 h
Escherichia coli [3] = test: Antibacterial activity against Escherichia coli DSM 1116 assessed as growth inhibition by serial dilution assay; format: functional

MIC (Escherichia coli [2]) [µM]	MIC (Bacillus subtilis) [µM]	MIC (Escherichia coli [3]) [µM]	SMILES	Activity [1]	MIC (Staphylococcus aureus) [µM]	IC50 (KB 3-1) [nM]
–	–	–	O=C(OC[C@H]1O[C@@H](OC(=O)c2cc(O)c(O)c(O)c2)[C@H](OC(=O)c2cc(O)c(O)c(O)c2)[C@@H](OC(=O)c2cc(O)c(O)c(O)c2)[C@@H]1O)c1cc(O)c(O)c(O)c1	inactive	–	–
–	–	–	COC1=C2[C@@H]3CC[C@@]45C[C@@H]6C[C@@H](OC(C)(O6)O4)[C@]5(C)[C@H]3CC[C@]2(C)[C@@H](c2ccc(=O)oc2)C1=O	inactive	142 (≈ 66.8 µg/mL)	–
36.7 (≈ 15.5 µg/mL)	158 (≈ 66.7 µg/mL)	–	O=c1c2cc(O)c(O)cc2oc2cc(O)c([C@H]3O[C@@H](CO)[C@H](O)[C@@H](O)[C@@H]3O)c(O)c12	inactive	158 (≈ 66.7 µg/mL)	–
–	–	–	CC12O[C@H]3C[C@@H](O1)[C@]1(C)[C@H]4CC[C@]5(C)[C@@H](c6ccc(=O)oc6)[C@@H](O)C[C@]5(O)[C@@H]4CC[C@@]1(C3)O2	inactive	–	1600
–	–	52.4 (≈ 33.4 µg/mL)	O=C(OC[C@H]1O[C@@H](OC(=O)c2cc(O)c(O)c(O)c2)[C@H](OC(=O)c2cc(O)c(O)c(O)c2)[C@@H](O)[C@@H]1O)c1cc(O)c(O)c(O)c1	inactive	–	–
–	–	–	CC12O[C@H]3C[C@@H](O1)[C@]1(C)[C@H]4CC[C@@]5(C)C(=CC(=O)[C@@H]5c5ccc(=O)oc5)[C@@H]4CC[C@@]1(C3)O2	inactive	152 (≈ 66.7 µg/mL)	1400

From ChEMBL document CHEMBL4837212, “Cytotoxic Compounds from the Stem Bark of Two subsp. of Bersama abyssinica” (J Nat Prod, 2021)
